Experimental data from PMC9506044, “Identification of Protosappanoside D from Caesalpinia decapetala and Evaluation of Its Pharmacokinetic, Metabolism and Pharmacological Activity” (Molecules, 2022).
“Also recorded” adds a separate entry of the source. Where two headings read alike, the source gives them in different places.

What was measured:
[1] = Metabolites identification in rat plasma (UHPLC/Q Exactive Plus MS); assay type: in vivo, Sprague-Dawley rats; settings: PTD 27.3 mg/kg by gavage twice daily for 3 d, 2 h after last administration
Protocol: To investigate the PTD metabolites, Sprague-Dawley rats were randomly divided into two groups with six rats in each group. PTD was continuously administered by gavage twice daily for 3 d at a dose of 27.3 mg/kg. Blood was collected from the rat femoral artery 2 h after the last administration, centrifuged at 6000 rpm at 4 °C for 6 min, and 100 μL of plasma was separated and frozen at −20 °C until analysis.
Qualitative analysis of metabolites was conducted on a Vanquish horizon (Thermo Scientific, Waltham, MA, USA) and combined with a Q Exactive Plus Orbitrap MS (QE Plus, Thermo Scientific, USA) system. The separation of PTD and its metabolites was achieved on a Hypersil gold column (2.1 × 150 mm, i.d., 1.9 μm). The mobile phase consisted of water containing 0.1% formic acid (B) and acetonitrile containing 0.1% formic acid (A). The gradient elution program was set as follows: 0–2 min, 5% A; 2–3 min, 5~25% A; 3–6 min, 25~40% A; 6–13 min, 40~95% A; 13–14 min, 95~95% A; 14–15 min, 95~5% A; 15–18 min, 5~5% A; flow rate, 0.3 mL/min. The MS unit parameters were set as follows: the range of data acquisition was 150–1000 m/z, electrospray voltage was 2.5 kV(−), 3.5 kV(+), solvent removal gas flow rate was 8 L/min, and desolvent gas temperature was 320 °C. Acquisition and processing were conducted using the Xcalibur 4.2 software (Thermo Fisher Scientific, USA) and Compound Discoverer 3.2 (Thermo, USA).
A 600 μL aliquot of each plasma sample was transferred into a 5 mL centrifuge tube, 300 μL of 2% formic acid solution and 2.4 mL of methanol was added before vortexing for 2 min. This was followed by sonication in an ultrasonic machine for 10 min, and centrifugation at 13,225× g for 10 min. The supernatant was then placed in a centrifuge tube and evaporated to dryness under a stream of nitrogen at 37 °C. The residues were dissolved in 200 μL of 50% methanol and centrifuged at 13,225× g for 10 min, and 1 μL of the solution was injected into the QE system.

[2] = Pharmacokinetic study in rats after oral and intravenous administration of PTD (UPLC-MS/MS, plasma); assay type: in vivo; settings: Sprague-Dawley; for AUC(0-inf) / AUC(0-t) / Cmax / MRT last / MRT inf / half-life / Tmax: rat plasma; for MRT last: read-out: MRT(0–t); for MRT inf: read-out: MRT(0–∞); for half-life: read-out: t1/2z (converted)
Protocol: Specific pathogen-free Sprague-Dawley rats (230 ± 10 g) were purchased from Changsha Tianqin Biotechnology Co., Ltd. (Changsha, China; certificate no. SCXK (Xiang) 2014-0010). Before starting the experiments, the rats were allowed one week of acclimatization in the animal quarters under air conditioning (25 ± 1 °C) and an automatically controlled photoperiod of 12 h of light daily. They were fed with standard rodent chow and tap water ad libitum. Rats were fasted for 12 h before the start of the experiment but were free to drink water. All experiments were approved by the Animal Ethics Committee of Guizhou Medical University and conducted in accordance with the guidelines of the Committee on the Care and Use of Laboratory Animals in China.
For the pharmacokinetic study, 12 rats were randomly divided into two groups, with 6 rats in each group. In the oral administration group, PTD was intragastrically administered to the rats at a dose of 27.3 mg/kg. For intravenous administration, PTD was injected at a dose of 9.1 mg/kg via the tail vein. Blood samples (0.3 mL) were collected directly from the caudal vein using anticoagulant centrifugal tubes at 0.083, 0.167, 0.33, 0.5, 0.75, 1, 1.5, 2, 4, 6, 9, 12 and 24 h after intravenous and oral administration, respectively. The blood sample was centrifuged at 6000 rpm for 6 min, and the supernatant plasma was transferred into a new clean tube and stored at −80 °C prior to further use.
The UPLC-MS/MS system consisted of an ACQUITY I-Class UPLC system and an XEVO TQ-S triple-quadrupole tandem mass spectrometer (Waters Corp., Milford, MA, USA) equipped with an ESI source. Chromatographic separation was performed using a UPLC BEN C18 column (2.1 × 50 mm, […]; Waters Corp., Milford, MA, USA) at 40 °C. The mobile phase consisted of water containing 0.2% formic acid (B) and acetonitrile containing 0.2% formic acid (A) delivered at 0.3 mL/min as a gradient as follows: 0–0.5 min, 10% A; 0.5–3 min, 90% A; 3–4 min, 90% A; 4–4.5 min, 10% A; 4.5–5 min, 10% A. Waters XEVO TQ-S triple-quadrupole mass spectrometer equipped with an ESI source was used for the mass analysis and detection. The main working parameters were set as follows: source temperature, 120 °C; desolvation temperature, 350 °C; and nebuliser gas (N2), 650 L/h. The scan time for all analytes was set at 0.2 s and acquisition and processing were conducted on a Micromass Masslynx4.1.
A 100 μL aliquot of each plasma sample was transferred into a 1.5 mL centrifuge tube, and 50 μL of 2% formic acid solution was added before vortexing for 30 s. Subsequently, the internal standard (IS) (50 μL of 20 ng/mL puerarin) and 400 μL of methanol were added and vortexed for 1 min. For subsequent treatment methods were the same as mentioned in the above section (4.7.1); finally, 1 μL of the solution was injected into the UPLC-MS/MS system.
Compound discoverer 3.2 was used for the analysis of metabolites of PTD; WinNonlin was used for the analysis of pharmacokinetic parameters, and Graphpad 8.2 was used for the illustrations. Data are expressed as mean ± SD. Statistical analysis was performed using the Statistical Product and Service Solutions software package (SPSS 22.0, SPSS Inc., Chicago, IL, USA). The results were analyzed using one-way ANOVA and bioavailability (F) was calculated according to the equation reported in He et al..

[3] = Stability of the analytes in rat plasma under various storage conditions; assay type: in vitro ADME
Protocol: The stability of analytes in rat plasma was assessed using QC samples at low, medium and high concentrations (n = 5 for each concentration level) under three conditions: (1) at room temperature for 24 h; (2) refrigerated at 4 °C for 24 h; and (3) three freeze-thaw cycles.

RAW264.7 cells = test: MTS cell viability assay on RAW264.7 cells; assay type: cell-based; settings: 24 h treatment
Protocol: (§1) RAW264.7 cells, obtained from American Type Culture Collection (ATCC, Manassas, VA, USA), were cultured in Dulbecco’s modified Eagle’s medium (DMEM) (Life Technologies, Grand Island, NY, USA) supplemented with 10% fetal bovine serum (FBS) and 1% penicillin-streptomycin (Grand Island, NY, USA). The cultures were incubated at 37 °C in a humidified atmosphere containing 5% CO2.
Cell viability was determined using the MTS cell viability assay kit. RAW264.7 cells were cultured at a density of 1 × 10^5 cells per well in 96-well plates by the treatment with various concentrations of PTD and PTB, respectively. After 24 h, 5 µL MTS was added to each well and incubated for 3 h. The plates were then read at 490 nm using a microplate reader.

[4] = system: LPS-stimulated RAW264.7 cells; test: Secretion of TNF-α, IL-1β and IL-6 by LPS-induced RAW264.7 cells (ELISA); assay type: cell-based; settings: 200 μmol/L, LPS 1 μg/mL, 24 h, compared to the model group
Protocol: as §1
RAW264.7 cells (1 × 10^5 cells/well in a 96-well plate) were treated with PTD, PTB (200 μmol/L) and stimulated by LPS (1 μg/mL) for 24 h. As a positive control, the impacts of Dex on LPS-induced RAW264.7 cells were also determined parallelly. The supernatants were then collected, and the accumulated NO level was determined using Griess reagent. The concentrations of TNF-α, IL-6 and IL-1β in conditioned media were measured using enzyme-linked immunosorbent assay (ELISA) according to the supplier’s instructions.

[5] = po, intragastric administration of PTD 27.3 mg/kg
[6] = rat, plasma, po, 27.3 mg/kg, intragastric administration of PTD 27.3 mg/kg
[7] = intravenous administration of PTD 9.1 mg/kg

Structure (SMILES) | Identification (metabolic pathway from PTD) [1] | AUC(0-inf) [2, 5] | AUC(0-t) [2, 5] | Cmax [2, 5] | MRT last [2, 5] | MRT inf [2, 5] | half-life [2, 5] | Tmax [2, 6] | AUC(0-inf) [2, 7] | AUC(0-t) [2, 7] | MRT last [2, 7] | MRT inf [2, 7] | half-life [2, 7] | concentration with no cytotoxicity to RAW264.7 cells (RAW264.7 cells) | secretion of IL-1β [4] | secretion of IL-6 [4] | secretion of TNF-α [4] | other results
COc1ccc2c(c1)OC(CO)=Cc1cc(O)c(O)cc1-2 [M2] | Dealkylation, Dehydration | – | – | – | – | – | – | – | – | – | – | – | – | – | – | – | – | –
COC1=CC=C(c2cc(O)c(O)cc2C#CC=O)C(=O)C1 [M3] | Dealkylation, Dehydration, Desaturation | – | – | – | – | – | – | – | – | – | – | – | – | – | – | – | – | –
COC1(C(=O)O)COc2cc(O[C@@H]3O[C@H](CO)[C@@H](O)[C@H](O)[C@H]3O)ccc2-c2cc(O)c(O)cc2C1 (stereo partly shown) [M4] | Desaturation, Oxidation, Methylation | – | – | – | – | – | – | – | – | – | – | – | – | – | – | – | – | –
OCC1(O)COc2cc(O)ccc2-c2cc(O)c(O)cc2C1 (stereo not shown) [PTB, protosappanin B, reference compound] | desugarization | 204 ± 43.9 ng·h/mL | 179 ± 45 ng·h/mL | 31.1 ± 10.5 ng/mL | 7.41 ± 0.77 h | 11.1 ± 2.32 h | 7.79 ± 1.59 h | 1.42 ± 0.49 h | 230 ± 71.9 ng·h/mL | 202 ± 59.5 ng·h/mL | 6.45 ± 2.15 h | 10.5 ± 3.88 h | 6.78 ± 2.69 h | below 300 μmol/L | significantly reduced; also recorded: significantly downregulated | significantly reduced; also recorded: significantly downregulated | significantly reduced; also recorded: significantly downregulated | Measured Concentration (Mean ± SD) ([3]; 4 °C for 24 h, nominal 2.51 ng/mL): 2.32 ± 0.11 ng/mL; Measured Concentration (Mean ± SD) ([3]; 4 °C for 24 h, nominal 20.08 ng/mL): 24.62 ± 1.12 ng/mL; Measured Concentration (Mean ± SD) ([3]; 4 °C for 24 h, nominal 251 ng/mL): 223.94 ± 15.73 ng/mL; Measured Concentration (Mean ± SD) ([3]; Room temperature for 24 h, nominal 2.51 ng/mL): 2.17 ± 0.13 ng/mL; Measured Concentration (Mean ± SD) ([3]; Room temperature for 24 h, nominal 20.08 ng/mL): 21.81 ± 1.46 ng/mL; Measured Concentration (Mean ± SD) ([3]; Room temperature for 24 h, nominal 251 ng/mL): 244.31 ± 8.62 ng/mL; Measured Concentration (Mean ± SD) ([3]; three freeze-thaw cycles, nominal 2.51 ng/mL): 2.68 ± 0.03 ng/mL; Measured Concentration (Mean ± SD) ([3]; three freeze-thaw cycles, nominal 20.08 ng/mL): 19.43 ± 1.08 ng/mL; Measured Concentration (Mean ± SD) ([3]; three freeze-thaw cycles, nominal 251 ng/mL): 259.84 ± 23.13 ng/mL
OCC1OC(Oc2ccc3c(c2)OCC(O)(CO)Cc2cc(O)c(O)cc2-3)C(O)C(O)C1O [PTD, protosappanin B-3-O-β-D-glucoside] | – | 405 ± 224 ng·h/mL | 382 ± 211 ng·h/mL | 250 ± 176 ng/mL | 3.06 ± 0.63 h | 4.15 ± 1.09 h | 3.47 ± 0.78 h | ~0.49 h | 19700 ng·h/mL | 19400 ng·h/mL | 1.8 ± 0.5 h | 2.4 ± 0.83 h | 3.65 ± 1.26 h | below 200 μmol/L | downregulate; also recorded: significantly reduced; also recorded: significantly downregulated | downregulate; also recorded: significantly reduced; also recorded: significantly downregulated | downregulate; also recorded: significantly reduced; also recorded: significantly downregulated | bioavailability ([2]; rat, plasma, oral, 27.3 mg/kg, rat, oral 27.3 mg/kg vs intravenous 9.1 mg/kg): 0.65%; Measured Concentration (Mean ± SD) ([3]; 4 °C for 24 h, nominal 5.01 ng/mL): 4.96 ± 0.65 ng/mL; Measured Concentration (Mean ± SD) ([3]; 4 °C for 24 h, nominal 250.5 ng/mL): 236.32 ± 13.98 ng/mL; Measured Concentration (Mean ± SD) ([3]; 4 °C for 24 h, nominal 15,030 ng/mL): 15,122.74 ± 959.18 ng/mL; Measured Concentration (Mean ± SD) ([3]; Room temperature for 24 h, nominal 5.01 ng/mL): 5.61 ± 0.32 ng/mL; Measured Concentration (Mean ± SD) ([3]; Room temperature for 24 h, nominal 250.5 ng/mL): 241.97 ± 8.73 ng/mL; Measured Concentration (Mean ± SD) ([3]; Room temperature for 24 h, nominal 15,030 ng/mL): 15,135.44 ± 1324.59 ng/mL; Measured Concentration (Mean ± SD) ([3]; three freeze-thaw cycles, nominal 5.01 ng/mL): 5.23 ± 0.58 ng/mL; Measured Concentration (Mean ± SD) ([3]; three freeze-thaw cycles, nominal 250.5 ng/mL): 260.48 ± 17.36 ng/mL; Measured Concentration (Mean ± SD) ([3]; three freeze-thaw cycles, nominal 15,030 ng/mL): 14,844.73 ± 346.61 ng/mL
